Assay results from PubChem BioAssay (NCI).
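Exposure lasted 48 hours, with cells grown in 96-well plates and compounds tested at five concentrations. TGI marks complete inhibition of growth.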

What was measured:
Test in all cases: DTP human tumour cell line panel, 48 h
SK-OV-3 ovarian = tested on: SK-OV-3 ovarian
SF-539 CNS = tested on: SF-539 CNS
HCT-15 colon = tested on: HCT-15 colon
SK-MEL-28 melanoma = tested on: SK-MEL-28 melanoma
NCI/ADR-RES ovarian = tested on: NCI/ADR-RES ovarian
NCI-H23 lung = tested on: NCI-H23 lung
UACC-257 melanoma = tested on: UACC-257 melanoma
HCC-2998 colon = tested on: HCC-2998 colon
SNB-75 CNS = tested on: SNB-75 CNS
NCI-H460 lung = tested on: NCI-H460 lung
U251 CNS = tested on: U251 CNS
MCF7 breast = tested on: MCF7 breast
SW-620 colon = tested on: SW-620 colon
SF-295 CNS = tested on: SF-295 CNS
HL-60(TB) leukemia = tested on: HL-60(TB) leukemia
HOP-62 NSCLC = tested on: HOP-62 NSCLC
DU-145 prostate = tested on: DU-145 prostate
SK-MEL-5 melanoma = tested on: SK-MEL-5 melanoma
OVCAR-5 ovarian = tested on: OVCAR-5 ovarian
786-0 renal = tested on: 786-0 renal
PC-3 prostate = tested on: PC-3 prostate
NCI-H226 lung = tested on: NCI-H226 lung
RPMI-8226 leukemia = tested on: RPMI-8226 leukemia
CCRF-CEM leukemia = tested on: CCRF-CEM leukemia
TK-10 renal = tested on: TK-10 renal
SR leukemia = tested on: SR leukemia
MDA-MB-231 breast = tested on: MDA-MB-231 breast
HT29 colon = tested on: HT29 colon
LOX IMVI melanoma = tested on: LOX IMVI melanoma
OVCAR-3 ovarian = tested on: OVCAR-3 ovarian
MOLT-4 leukemia = tested on: MOLT-4 leukemia
HOP-92 NSCLC = tested on: HOP-92 NSCLC
A498 renal = tested on: A498 renal
K-562 leukemia = tested on: K-562 leukemia
T-47D breast = tested on: T-47D breast
SK-MEL-2 melanoma = tested on: SK-MEL-2 melanoma
HCT-116 colon = tested on: HCT-116 colon
EKVX NSCLC = tested on: EKVX NSCLC
SF-268 CNS = tested on: SF-268 CNS
IGROV1 ovarian = tested on: IGROV1 ovarian
OVCAR-8 ovarian = tested on: OVCAR-8 ovarian
HS 578T breast = tested on: HS 578T breast
RXF 393 renal = tested on: RXF 393 renal
ACHN renal = tested on: ACHN renal
NCI-H522 lung = tested on: NCI-H522 lung
M14 melanoma = tested on: M14 melanoma
UO-31 renal = tested on: UO-31 renal
SNB-19 CNS = tested on: SNB-19 CNS
COLO 205 colon = tested on: COLO 205 colon
BT-549 breast = tested on: BT-549 breast
MALME-3M melanoma = tested on: MALME-3M melanoma
KM12 colon = tested on: KM12 colon
A549 NSCLC = tested on: A549 NSCLC
MDA-MB-435 = tested on: MDA-MB-435
SN12C renal = tested on: SN12C renal
CAKI-1 renal = tested on: CAKI-1 renal
UACC-62 melanoma = tested on: UACC-62 melanoma
OVCAR-4 ovarian = tested on: OVCAR-4 ovarian

## CCOc1cc(/C=C2/C(C)=NN(c3cccc(Cl)c3)/C2=N/c2nc3ccccc3s2)ccc1O
SK-OV-3 ovarian
  TGI: 70.5 µM
SF-539 CNS
  TGI: 57 µM
HCT-15 colon
  TGI: 69.8 µM
SK-MEL-28 melanoma
  TGI: > 100 µM
NCI/ADR-RES ovarian
  TGI: 55.9 µM
NCI-H23 lung
  TGI: 50.7 µM
UACC-257 melanoma
  TGI: 61.6 µM
HCC-2998 colon
  TGI: 35.6 µM
SNB-75 CNS
  TGI: > 100 µM
NCI-H460 lung
  TGI: 64 µM
U251 CNS
  TGI: 43 µM
MCF7 breast
  TGI: 81.8 µM
SW-620 colon
  TGI: > 100 µM
SF-295 CNS
  TGI: 93.8 µM
HL-60(TB) leukemia
  TGI: 12.4 µM
HOP-62 NSCLC
  TGI: > 100 µM
DU-145 prostate
  TGI: > 100 µM
SK-MEL-5 melanoma
  TGI: 40.2 µM
OVCAR-5 ovarian
  TGI: > 100 µM
786-0 renal
  TGI: > 100 µM
PC-3 prostate
  TGI: 43.5 µM
NCI-H226 lung
  TGI: 68 µM
RPMI-8226 leukemia
  TGI: > 100 µM
CCRF-CEM leukemia
  TGI: > 100 µM
TK-10 renal
  TGI: > 100 µM
SR leukemia
  TGI: 81.1 µM
MDA-MB-231 breast
  TGI: 59.6 µM
HT29 colon
  TGI: > 100 µM
LOX IMVI melanoma
  TGI: > 100 µM
OVCAR-3 ovarian
  TGI: 50.8 µM
MOLT-4 leukemia
  TGI: > 100 µM
HOP-92 NSCLC
  TGI: 67.8 µM
A498 renal
  TGI: 56.9 µM
K-562 leukemia
  TGI: > 100 µM
T-47D breast
  TGI: > 100 µM
SK-MEL-2 melanoma
  TGI: 41.4 µM
HCT-116 colon
  TGI: 67.5 µM
EKVX NSCLC
  TGI: > 100 µM
SF-268 CNS
  TGI: 86.1 µM
IGROV1 ovarian
  TGI: > 100 µM
OVCAR-8 ovarian
  TGI: > 100 µM
HS 578T breast
  TGI: 68.6 µM
RXF 393 renal
  TGI: > 100 µM
ACHN renal
  TGI: 63.6 µM
NCI-H522 lung
  TGI: 52.7 µM
M14 melanoma
  TGI: 75.5 µM
UO-31 renal
  TGI: 52.8 µM

## COc1ccc(C(=O)Nc2ccc(O)c(=O)cc2)cc1
SNB-19 CNS
  TGI: 93.6 µM
COLO 205 colon
  TGI: 57 µM
BT-549 breast
  TGI: > 100 µM
SF-539 CNS
  TGI: 81.1 µM
MALME-3M melanoma
  TGI: > 100 µM
HCT-15 colon
  TGI: 89.5 µM
SK-MEL-28 melanoma
  TGI: 56.4 µM
NCI/ADR-RES ovarian
  TGI: > 100 µM
NCI-H23 lung
  TGI: > 100 µM
UACC-257 melanoma
  TGI: > 100 µM
HCC-2998 colon
  TGI: > 100 µM
KM12 colon
  TGI: > 100 µM
NCI-H460 lung
  TGI: 28.7 µM
U251 CNS
  TGI: > 100 µM
A549 NSCLC
  TGI: > 100 µM
MCF7 breast
  TGI: 65 µM
SW-620 colon
  TGI: > 100 µM
SF-295 CNS
  TGI: > 100 µM
HL-60(TB) leukemia
  TGI: 54.6 µM
HOP-62 NSCLC
  TGI: > 100 µM
DU-145 prostate
  TGI: 59 µM
SK-MEL-5 melanoma
  TGI: > 100 µM
OVCAR-5 ovarian
  TGI: > 100 µM
786-0 renal
  TGI: > 100 µM
PC-3 prostate
  TGI: > 100 µM
NCI-H226 lung
  TGI: > 100 µM
MDA-MB-435
  TGI: > 100 µM
RPMI-8226 leukemia
  TGI: > 100 µM
CCRF-CEM leukemia
  TGI: 72.1 µM
SN12C renal
  TGI: > 100 µM
TK-10 renal
  TGI: > 100 µM
SR leukemia
  TGI: 31.4 µM
MDA-MB-231 breast
  TGI: > 100 µM
HT29 colon
  TGI: 44.1 µM
LOX IMVI melanoma
  TGI: > 100 µM
OVCAR-3 ovarian
  TGI: 90 µM
K-562 leukemia
  TGI: 77.3 µM
SK-MEL-2 melanoma
  TGI: > 100 µM
CAKI-1 renal
  TGI: > 100 µM
HCT-116 colon
  TGI: > 100 µM
EKVX NSCLC
  TGI: 59 µM
SF-268 CNS
  TGI: 63.4 µM
IGROV1 ovarian
  TGI: > 100 µM
OVCAR-8 ovarian
  TGI: 91.7 µM
HS 578T breast
  TGI: > 100 µM
UACC-62 melanoma
  TGI: > 100 µM
RXF 393 renal
  TGI: 37.3 µM
ACHN renal
  TGI: 59.8 µM
NCI-H522 lung
  TGI: 63.1 µM
M14 melanoma
  TGI: > 100 µM
UO-31 renal
  TGI: 47 µM

## Cc1c(/C=N\NC(=S)NCCNC(=S)N/N=C\c2c(C)n(C)n(-c3ccccc3)c2=O)c(=O)n(-c2ccccc2)n1C
SNB-19 CNS
  TGI: > 100 µM
SK-OV-3 ovarian
  TGI: > 100 µM
COLO 205 colon
  TGI: > 100 µM
BT-549 breast
  TGI: > 100 µM
SF-539 CNS
  TGI: > 100 µM
MALME-3M melanoma
  TGI: > 100 µM
HCT-15 colon
  TGI: > 100 µM
NCI/ADR-RES ovarian
  TGI: > 100 µM
NCI-H23 lung
  TGI: > 100 µM
OVCAR-4 ovarian
  TGI: > 100 µM
UACC-257 melanoma
  TGI: > 100 µM
HCC-2998 colon
  TGI: > 100 µM
SNB-75 CNS
  TGI: > 100 µM
KM12 colon
  TGI: > 100 µM
NCI-H460 lung
  TGI: > 100 µM
U251 CNS
  TGI: > 100 µM
A549 NSCLC
  TGI: > 100 µM
SW-620 colon
  TGI: > 100 µM
SF-295 CNS
  TGI: > 100 µM
HOP-62 NSCLC
  TGI: > 100 µM
DU-145 prostate
  TGI: > 100 µM
SK-MEL-5 melanoma
  TGI: > 100 µM
OVCAR-5 ovarian
  TGI: > 100 µM
786-0 renal
  TGI: > 100 µM
PC-3 prostate
  TGI: > 100 µM
NCI-H226 lung
  TGI: > 100 µM
MDA-MB-435
  TGI: > 100 µM
TK-10 renal
  TGI: > 100 µM
SR leukemia
  TGI: > 100 µM
MDA-MB-231 breast
  TGI: > 100 µM
HT29 colon
  TGI: > 100 µM
OVCAR-3 ovarian
  TGI: > 100 µM
MOLT-4 leukemia
  TGI: > 100 µM
HOP-92 NSCLC
  TGI: > 100 µM
A498 renal
  TGI: > 100 µM
T-47D breast
  TGI: > 100 µM
SK-MEL-2 melanoma
  TGI: > 100 µM
CAKI-1 renal
  TGI: > 100 µM
HCT-116 colon
  TGI: > 100 µM
EKVX NSCLC
  TGI: > 100 µM
SF-268 CNS
  TGI: > 100 µM
HS 578T breast
  TGI: > 100 µM
UACC-62 melanoma
  TGI: > 100 µM
RXF 393 renal
  TGI: > 100 µM
ACHN renal
  TGI: > 100 µM
M14 melanoma
  TGI: > 100 µM
UO-31 renal
  TGI: > 100 µM

## COc1cc2c(cc1OC)C1C3CCCCC3CCN1CC2 (centres undefined)
SNB-19 CNS
  TGI: > 100 µM
SK-OV-3 ovarian
  TGI: > 100 µM
COLO 205 colon
  TGI: > 100 µM
SF-539 CNS
  TGI: > 100 µM
MALME-3M melanoma
  TGI: > 100 µM
HCT-15 colon
  TGI: > 100 µM
SK-MEL-28 melanoma
  TGI: > 100 µM
NCI/ADR-RES ovarian
  TGI: > 100 µM
NCI-H23 lung
  TGI: > 100 µM
OVCAR-4 ovarian
  TGI: > 100 µM
UACC-257 melanoma
  TGI: > 100 µM
HCC-2998 colon
  TGI: > 100 µM
SNB-75 CNS
  TGI: > 100 µM
KM12 colon
  TGI: > 100 µM
NCI-H460 lung
  TGI: > 100 µM
U251 CNS
  TGI: > 100 µM
A549 NSCLC
  TGI: > 100 µM
MCF7 breast
  TGI: > 100 µM
SW-620 colon
  TGI: > 100 µM
SF-295 CNS
  TGI: > 100 µM
HL-60(TB) leukemia
  TGI: > 100 µM
HOP-62 NSCLC
  TGI: > 100 µM
DU-145 prostate
  TGI: > 100 µM
SK-MEL-5 melanoma
  TGI: > 100 µM
OVCAR-5 ovarian
  TGI: > 100 µM
786-0 renal
  TGI: > 100 µM
PC-3 prostate
  TGI: > 100 µM
NCI-H226 lung
  TGI: > 100 µM
MDA-MB-435
  TGI: > 100 µM
CCRF-CEM leukemia
  TGI: > 100 µM
SN12C renal
  TGI: > 100 µM
TK-10 renal
  TGI: > 100 µM
SR leukemia
  TGI: > 100 µM
MDA-MB-231 breast
  TGI: > 100 µM
HT29 colon
  TGI: > 100 µM
LOX IMVI melanoma
  TGI: > 100 µM
OVCAR-3 ovarian
  TGI: > 100 µM
MOLT-4 leukemia
  TGI: > 100 µM
HOP-92 NSCLC
  TGI: > 100 µM
A498 renal
  TGI: > 100 µM
K-562 leukemia
  TGI: > 100 µM
T-47D breast
  TGI: > 100 µM
SK-MEL-2 melanoma
  TGI: > 100 µM
CAKI-1 renal
  TGI: > 100 µM
HCT-116 colon
  TGI: > 100 µM
EKVX NSCLC
  TGI: > 100 µM
SF-268 CNS
  TGI: > 100 µM
IGROV1 ovarian
  TGI: > 100 µM
OVCAR-8 ovarian
  TGI: > 100 µM
HS 578T breast
  TGI: > 100 µM
UACC-62 melanoma
  TGI: > 100 µM
RXF 393 renal
  TGI: > 100 µM
ACHN renal
  TGI: > 100 µM
NCI-H522 lung
  TGI: > 100 µM
